Assay results: patent US8012985B2, “Compounds with antiparasitic activity and medicines containing same” (Centre National de la Recherche Scientifique (C.N.R.S.), priority 2002, dated 2011)
pIC50: −log10 of the molar value. Where a name gives a salt, the structure may show the parent alone. Read-outs that look alike come from different tables or passages of the source. Marks after values point to notes of the source that are not given here.

Tests used:
P. falciparum = assay: Antimalarial activity in vitro against P. falciparum (Desjardins test, [3H] hypoxanthine incorporation); type: cell-based; conditions: growth in vitro of P. falciparum
Source text: FIG. 1 represents the antimalarial activity of compound 6.0 as a function of the drug concentration, according to Desjardins' test, (Desjardins R. E. et al., Antimicrob. Agents Chemother. 1979, 16, 710-718).
(§1) A. Antimalarial Activity In Vitro Against P. Falciparum and In Vivo in Mice Infected with P. Vinckei
(§2) Tables 4 and 5 hereafter show the results of the IC50 values in μM and of ED50 (mg/kg) obtained with compounds of the invention.
(§3) The IC50 is the concentration which inhibits 50% of the growth in vitro of P. falciparum (the IC50 measurements were determined according to the method of Desjardins in which the incorporation of [^3H] hypoxanthine in the nucleic acids serves as a cell viability index) (FIG. 1), the ED50 is the effective dose for inhibiting 50% of the growth in vivo of P. vinckei according to a 4-day suppression test.

P. vinckei = assay: Antimalarial activity in vivo in mice infected with P. vinckei, 4-day suppression test; conditions: for ED50: Plasmodium vinckei, 96 h
Method: as §1, §2, §3
TI corresponds to the therapeutic index, TI=LD50 (semi chronic)/ED50; ip: intraperitoneal administration; po: per os.

B. canis = assay: Antibabesia activity in vitro against B. canis; type: cell-based
Method: (§4) The products 6.0, 22.0, and 2.0 were also evaluated in vitro for their activities against Babesia divergens and B. canis.

Babesia divergens = assay: Antibabesia activity in vitro against Babesia divergens; type: cell-based
Method: as §4

[1] = set-up: species or system mice; conditions: mouse, in vivo
Method: The results are given hereafter of the pharmacokinetic parameters after administration by intra-peritoneal or oral route in mice for compound 6.0.
For determination of the serum level, bio-tests were used ex vivo: briefly, the medicament is administered to the animal, then blood samples are repeatedly taken. The sera are decomplemented for 30 minutes at 56° C. The active metabolite content is then determined by incubation of different concentrations (dichotomous dilution) of each serum, in the presence of suspensions of erythrocytes infected with P. falciparum, according to the method of DESJARDINS with [^3H] hypoxanthine.
The results are expressed in IS50, which corresponds to the percentage of serum (containing an active metabolite) capable of inhibiting 50% of the growth of P. falciparum.
This value is then converted into serum concentration (usually expressed in ng/ml), by testing the active compound directly (without passing via the animal), on the same suspension infected with P. falciparum and by determining its IC50 value (in ng/ml) [serum count ═IC50] (in ng/ml)×100/SI50 (in %)].
The results are expressed in log (serum count of medicaments), as a function of time, which allows the evaluation of the half-time for the distribution to the serum compartment t1/2(d); the half-time for the elimination of the serum compartment (t1/2(e)); of C0, corresponding to the serum count extrapolated to the origin in the elimination phase; of AUC (which indicates the quantity of drug circulating in the bloodstream); and the relative bio-availability in the administration method by oral route, versus the method by intraperitoneal route [AUC (po)/AUC (ip)] which signifies the degree of absorption by oral route.

[2] = ip, tested after 2 administrations of the compound per day for 4 days
[3] = po, tested after 2 administrations of the compound per day for 4 days

CC(=N)NCCCCCCCCCCCCNC(C)=N [Compound 20.0, 1,12-bis(N,N′-acetamidinyl)dodecane]
pIC50 (P. falciparum): 8.70
ED50 (mg/Kg) P. vinckei (P. vinckei; [2]): ip = 2.3* mg/Kg

1,12-bis[N,N′-(isobutyloxycarbonyl)amidinyl]dodecane [Compound 1.4]
pIC50 (P. falciparum): 6.30

NC(CCCCCCCCCCCCC(N)=NOC(=O)c1ccccc1)=NOC(=O)c1ccccc1 [Compound 1.23, 1,12-bis(N,N′-benzoyloxyamidinyl)dodecane]
pIC50 (P. falciparum): 5.96

O=C(OCc1ccccc1)N1CCN=C1CCCCCCCCCCCCC1=NCCN1C(=O)OCc1ccccc1 [Compound 6.5, 1,12-bis[N,N′-(benzyloxycarbonyl)imidazolin-2-yl]dodecane]
pIC50 (P. falciparum): 4.92
ED50 (mg/Kg) P. vinckei (P. vinckei; [2]): ip < 20* mg/Kg
ED50 (mg/Kg) P. vinckei (P. vinckei; [3]): po ≈ 100* mg/Kg

O=c1[nH]c(CCCCCCCCCCCCc2nsc(=O)[nH]2)ns1 [Compound 1.30, 1,12-bis[(1.2,4-thiadiazol-5(4H)-one)-3-yl]dodecane]
pIC50 (P. falciparum): 7.70
ED50 (mg/Kg) P. vinckei (P. vinckei; ip, 4-day suppression test): ip = 20 mg/Kg

Cc1noc(=O)n1CCCCCCCCCCCCn1c(C)noc1=O [Compound 20.14, 1,12-bis[N,N′(3-methyl-1,2,4-oxadiazol-5(4H)-one)-3-yl]dodecane]
pIC50 (P. falciparum; Plasmodium falciparum): 5.15
ED50 (P. vinckei; ip, 4-day suppression test): 9 mg/kg
ED50 (P. vinckei; po, 4-day suppression test): 62 mg/kg

CCNC(=O)ON=C(N)CCCCCCCCCCCCC(N)=NOC(=O)NCC [Compound 1.24, 1,12-bis(N,N′-ethylcarbamoyloxyamidinyl)dodecane]
pIC50 (P. falciparum): 6.70
ED50 (mg/Kg) P. vinckei (P. vinckei; po, 4-day suppression test): po = 90 mg/Kg

CC1(C)CN=C(NCCCCCCCCCCCCNC2=NCCC2)NC1 [25.0, 2 TFA]
pIC50 (P. falciparum): 8.72

1,12-bis[N,N′-(benzyloxycarbonyl)amidinyl]dodecane [Compound 1.5]
pIC50 (P. falciparum): 6.40

CCOC(=O)NC(=N)CCCCCCCCCCCCC(=N)NC(=O)OCC [Compound 1.2, 1,12-bis[N,N′-(ethyloxycarbonyl)amidinyl]dodecane]
pIC50 (P. falciparum): 6.52
ED50 (mg/Kg) P. vinckei (P. vinckei; ip, 4-day suppression test): ip 33 mg/Kg

C(CCCCCCC1=NCCN1)CCCCCC1=NCCN1 [Compound 6.0, 1,12-bis(imidazolin-2-yl)dodecane]
pIC50 (P. falciparum): 8.70
ED50 (mg/Kg) P. vinckei (P. vinckei; [2]): ip = 34* mg/Kg
ED50 (mg/Kg) P. vinckei (P. vinckei; [3]): po = 62* mg/Kg

O=S1NC(CCCCCCCCCCCCC2=NOS(=O)N2)=NO1 (stereo not drawn) [Compound 1.28, 1,12-bis[(1.2,3,5-oxathiadiazol-2(3H)-oxide)-4-yl]dodecane]
pIC50 (P. falciparum): 6.70

CCOC(=O)ON=C(N)CCCCCCCCCCCCC(N)=NOC(=O)OCC [Compound 1.17, 1,12-bis(N,N′-ethoxycarbonyloxyamidinyl)dodecane]
pIC50 (P. falciparum): 5.92

CS(=O)(=O)OCC(=N)NCCCCCCCCCCCCNC(=N)COS(C)(=O)=O [Compound 20.12, 1,12-bis(N,N′-methylsulfonyloxyacetamidinyl)dodecane]
ED50 (mg/Kg) P. vinckei (P. vinckei; ip, 4-day suppression test): ip = 4.7 mg/Kg
ED50 (mg/Kg) P. vinckei (P. vinckei; po, 4-day suppression test): po = 42 mg/Kg

O=c1[nH]c(CCCCCCCCCCCCc2noc(=O)[nH]2)no1 [Compound 1.27, 1,12-bis[(1.2,4-oxadiazol-5(4H)-one)-3-yl]dodecane]
pIC50 (P. falciparum): 5.04

CC(C)(C)OC(=O)N=C(NCCCCCCCCCCCCNC(=NC(=O)OC(C)(C)C)NC(=O)OC(C)(C)C)NC(=O)OC(C)(C)C [Compound 12.2, 1,12-bis(N,N′-di-tert-butyloxycarbonylguanidino)dodecane]
pIC50 (P. falciparum): 5.72

N=C(CCCCCCCCCCCCC(=N)N1CCCC1)N1CCCC1 [Compound 2.0, 2 HCl, 1,14-di(pyrrolidin-1-yl)tetradecane-1,14-diimine]
pIC50 (B. canis): > 7.30
pIC50 (Babesia divergens): > 7.30

COC(=O)ON=C(N)CCCCCCCCCCCCC(N)=NOC(=O)OC [Compound 1.18, 1,12-bis(N,N′-methoxycarbonyloxyamidinyl)dodecane]
pIC50 (P. falciparum): 5.96

1,12-bis(N,N′-methoxyacetamidinyl)dodecane [Compound 20.2]
pIC50 (P. falciparum): 5.36
ED50 (mg/Kg) P. vinckei (P. vinckei; ip, 4-day suppression test): ip = 10 mg/Kg
ED50 (mg/Kg) P. vinckei (P. vinckei; po, 4-day suppression test): po = 110 mg/Kg

CON=C(N)CCCCCCCCCCCCC(N)=NOC [Compound 1.16, 1,12-bis(N,N′-methoxyamidinyl)dodecane]
pIC50 (P. falciparum): 5.17

NC(CCCCCCCCCCCCC(N)=NOC(=O)Oc1ccccc1)=NOC(=O)Oc1ccccc1 [Compound 1.19, 1,12-bis(N,N′-phenoxycarbonyloxyamidinyl)dodecane]
pIC50 (P. falciparum): 5.44

NC(CCCCCCCCCCCCC(N)=NO)=NO [Compound 1.15, 1,12-bis(N,N′-hydroxyamidinyl)dodecane]
pIC50 (P. falciparum): 5.46
ED50 (mg/Kg) P. vinckei (P. vinckei; po, 4-day suppression test): po = 120 mg/Kg

CC(=O)ON=C(N)CCCCCCCCCCCCC(N)=NOC(C)=O [Compound 1.22, 1,12-bis(N,N′-acetoxyamidinyl)dodecane]
pIC50 (P. falciparum): 5.85

N=C(CCCCCCCCCCCCC(=N)N1CCCCC1)N1CCCCC1 [Compound 3.0, 1,14-di(piperidin-1-yl)tetradecane-1,14-diimine]
pIC50 (P. falciparum; Plasmodium falciparum): 8.31

N=C1CCCN1CCCCCCCCCCCCN1CCCC1=N [Compound 24.0, 1,12-bis[N,N′-(2-iminopyrrolidinyl)]dodecane]
pIC50 (P. falciparum): 8.40

C(CCCCCCNC1=NCCC1)CCCCCNC1=NCCC1 [Compound 21.0, 1,12-bis[N,N′-(3,4-dihydro-2H-pyrrol-5-yl)amino]dodecane]
pIC50 (P. falciparum): 8.42
ED50 (mg/Kg) P. vinckei (P. vinckei; [2]): ip = 2.8* mg/Kg
ED50 (mg/Kg) P. vinckei (P. vinckei; [3]): po = 85* mg/Kg
C0 ([1]; ip, 15 mg/kg): 24 ng/mL
t1/2 ([1]; ip, 15 mg/kg): approximately 35 hours
C0 ([1]; po, 100 mg/kg): 16 ng/mL
apparent t1/2 ([1]; po, 100 mg/kg): 36 h

O=C(Oc1ccc(F)cc1)N1CCN=C1CCCCCCCCCCCCC1=NCCN1C(=O)Oc1ccc(F)cc1 [Compound 6.8, 1,12-bis[N,N′-(4-fluorophenylyloxycarbonyl)imidazolin-2-yl]dodecane]
pIC50 (P. falciparum): 4.16
